Source: the supplement of paper PMC11208160

experiment: recombinant barcode read abundance after kanamycin selection (control-corrected) (log10(CPM+1)); higher = more efficient recombination; sequences stand for … in AGTGCAGAGAAAATCGGCCAGTTTTCTCTGCCTGCAGTCCGCATGCCGT…AGATTTATGCAGCGGACTGCCTTTCTCCCAAAGTGATAAACCGGACAGTATCATGGACCGGTTTTCCCGGTAATCCGTATTTGCAAGGTTGGTTTCACT; site = the 11-nt target
Outline: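 Pooled oligos, each joining a target to an IS621 bridge RNA target-binding loop, were cloned and co-electroporated with a donor plasmid into E. coli. Selective plates carried chloramphenicol/ampicillin/kanamycin and 0.1 mM IPTG, while chloramphenicol/ampicillin LB agar served as control, with two replicates of each. Recombination efficiency rests on averaged, control-corrected counts per million of barcodes at recombinant junctions, shown as log10(CPM+1).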
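Note: IS621 recombinase and bridge RNA in Escherichia coli cells.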

Row | Sequence | recombinant barcode read abundance (log10)
1 | GAGAGAGCTTGGGTTCTAACCTGTTGCAT (site GAGTGAGCTAT) | 0.14
2 | GAGAGGTCTTGGGTTCTAACCTGTTGCCT (site GAGAGGTCTAA) | 0.298
3 | GAGAGGTCTTGGGTTCTAACCTGTTGCCT (site GAGAGGTCTAC) | 0.0681
4 | GAGAGGTCTTGGGTTCTAACCTGTTGCCT (site GAGAGGTCTAG) | 1.56
5 | GAGAGGTCTTGGGTTCTAACCTGTTGCCT (site GAGAGGTCTAT) | 0.203
6 | GAGATGTCTTGGGTTCTAACCTGTTGCCT (site GAGATGTCTAG) | 2.43
7 | GAGATGTCTTGGGTTCTAACCTGTTGCCT (site GCGATGTCTAG) | 0.147
8 | GAGATGTCTTGGGTTCTAACCTGTTGCCT (site GGGATGTCTAG) | 0.266
9 | GAGATGTCTTGGGTTCTAACCTGTTGCCT (site GTGATGTCTAG) | 0.577
10 | GAGCACCCTTGGGTTCTAACCTGTTGCCA (site GAGCACCCTTG) | 1.77
11 | GAGCACCCTTGGGTTCTAACCTGTTGCCA (site GAGCTCACTTG) | 0.0464
12 | GAGCAGTCTTGGGTTCTAACCTGTTGCCT (site GAGAAGTCTAG) | 0
13 | GAGCAGTCTTGGGTTCTAACCTGTTGCCT (site GAGCAGTCTAG) | 2.4
14 | GAGCAGTCTTGGGTTCTAACCTGTTGCCT (site GAGGAGTCTAG) | 0.117
15 | GAGCAGTCTTGGGTTCTAACCTGTTGCCT (site GAGTAGTCTAG) | 0.214
16 | GAGCCACCTTGGGTTCTAACCTGTTGCTG (site GAGCCACCTCA) | 1.58
17 | GAGCCACCTTGGGTTCTAACCTGTTGCTG (site GAGCCGCCTCG) | 0.104
18 | GAGCCGACTTGGGTTCTAACCTGTTGCAG (site GAGCCGACTCT) | 2.25
19 | GAGCCGACTTGGGTTCTAACCTGTTGCAG (site TAGCCGGCTCT) | 0.0779
20 | GAGCCGACTTGGGTTCTAACCTGTTGCCT (site GAGCAGACTAG) | 0.288
21 | GAGCCGACTTGGGTTCTAACCTGTTGCCT (site GAGCCGACTAG) | 1.56
22 | GAGCCGACTTGGGTTCTAACCTGTTGCCT (site GAGCGGACTAG) | 0.274

Row | Sequence | recombinant barcode read abundance (log10)
23 | GAGCCGACTTGGGTTCTAACCTGTTGCCT (site GAGCTGACTAG) | 0.0365
24 | GAGCCGCCTTGGGTTCTAACCTGTTGCAT (site GAGCCGCCTAT) | 1.48
25 | GAGCCGCCTTGGGTTCTAACCTGTTGCAT (site GGGACGCCTAT) | 0.0756
26 | GAGCCGCCTTGGGTTCTAACCTGTTGCCG (site GAGCCACCTCA) | 0.118
27 | GAGCCGCCTTGGGTTCTAACCTGTTGCCG (site GAGCCGCCTCG) | 1.04
28 | GAGCCTACTTGGGTTCTAACCTGTTGCCT (site GAACCTACTCG) | 0.0224
29 | GAGCCTACTTGGGTTCTAACCTGTTGCCT (site GAGCCTACTAG) | 1.29
30 | GAGCCTACTTGGGTTCTAACCTGTTGCTA (site AAGCCTACTTA) | 0.25
31 | GAGCCTACTTGGGTTCTAACCTGTTGCTA (site GAGCCTACTTA) | 1.02
32 | GAGCGAGCTTGGGTTCTAACCTGTTGCTA (site GAGCGAGCTTA) | 1.31
33 | GAGCGAGCTTGGGTTCTAACCTGTTGCTA (site GAGCGGACTTA) | 0.267
34 | GAGCGCACTTGGGTTCTAACCTGTTGCGG (site GAGCGCACTCC) | 2.13
35 | GAGCGCACTTGGGTTCTAACCTGTTGCGG (site GAGCGCACTCT) | 1.51
36 | GAGCGCTCTTGGGTTCTAACCTGTTGCTA (site GAGCGCTCTAA) | 0.167
37 | GAGCGCTCTTGGGTTCTAACCTGTTGCTA (site GAGCGCTCTCA) | 0.223
38 | GAGCGCTCTTGGGTTCTAACCTGTTGCTA (site GAGCGCTCTGA) | 0.12
39 | GAGCGCTCTTGGGTTCTAACCTGTTGCTA (site GAGCGCTCTTA) | 0.636
40 | GAGCGCTCTTGGGTTCTAACCTGTTGCTC (site GAGCGCTCTAA) | 0.525
41 | GAGCGCTCTTGGGTTCTAACCTGTTGCTC (site GAGCGCTCTCA) | 0.0599
42 | GAGCGCTCTTGGGTTCTAACCTGTTGCTC (site GAGCGCTCTGA) | 1.18
43 | GAGCGCTCTTGGGTTCTAACCTGTTGCTC (site GAGCGCTCTTA) | 0.381
44 | GAGCGTACTTGGGTTCTAACCTGTTGCAT (site GAGAGTACTAT) | 0.257

Row | Sequence | recombinant barcode read abundance (log10)
45 | GAGCGTACTTGGGTTCTAACCTGTTGCAT (site GAGCGTACTAT) | 1.09
46 | GAGCGTACTTGGGTTCTAACCTGTTGCAT (site GAGGGTACTAT) | 0.0723
47 | GAGCGTACTTGGGTTCTAACCTGTTGCAT (site GAGTGTACTAT) | 0.0144
48 | GAGCGTCCTTGGGTTCTAACCTGTTGCTA (site AGCGAATCTCG) | 0.0924
49 | GAGCGTCCTTGGGTTCTAACCTGTTGCTA (site GAGCGTCCTTA) | 0.94
50 | GAGCTACCTTGGGTTCTAACCTGTTGCCT (site GAGCTACCTAG) | 1.46
51 | GAGCTACCTTGGGTTCTAACCTGTTGCCT (site GAGCTACCTCG) | 0.549
52 | GAGCTACCTTGGGTTCTAACCTGTTGCCT (site GAGCTACCTGG) | 0.172
53 | GAGCTACCTTGGGTTCTAACCTGTTGCCT (site GAGCTACCTTG) | 0.0234
54 | GAGCTGCCTTGGGTTCTAACCTGTTGCTT (site AAGCTGCCTAG) | 0.25
55 | GAGCTGCCTTGGGTTCTAACCTGTTGCTT (site GAGCTGCCTAA) | 1.3
56 | GAGGAGCCTTGGGTTCTAACCTGTTGCGT (site GAGGAGCCTAC) | 2.62
57 | GAGGAGCCTTGGGTTCTAACCTGTTGCGT (site TAGGAACCTAC) | 1.34
58 | GAGGCGGCTTGGGTTCTAACCTGTTGCTT (site GAGACGGCTAA) | 0.162
59 | GAGGCGGCTTGGGTTCTAACCTGTTGCTT (site GAGCCGGCTAA) | 0.149
60 | GAGGCGGCTTGGGTTCTAACCTGTTGCTT (site GAGGCGGCTAA) | 1.04
61 | GAGGCGGCTTGGGTTCTAACCTGTTGCTT (site GAGTCGGCTAA) | 0.0862
62 | GAGGCTCCTTGGGTTCTAACCTGTTGCCA (site GAGGCTCCTAG) | 2.19
63 | GAGGCTCCTTGGGTTCTAACCTGTTGCCA (site GAGGCTCCTCG) | 0.0289
64 | GAGGCTCCTTGGGTTCTAACCTGTTGCCA (site GAGGCTCCTGG) | 0.164
65 | GAGGCTCCTTGGGTTCTAACCTGTTGCCA (site GAGGCTCCTTG) | 0.365
66 | GAGGCTCCTTGGGTTCTAACCTGTTGCCT (site GAGGCTCCTAG) | 0.744

Row | Sequence | recombinant barcode read abundance (log10)
67 | GAGGCTCCTTGGGTTCTAACCTGTTGCCT (site GAGGCTCCTCG) | 0.0603
68 | GAGGCTCCTTGGGTTCTAACCTGTTGCCT (site GAGGCTCCTGG) | 0.137
69 | GAGGCTCCTTGGGTTCTAACCTGTTGCCT (site GAGGCTCCTTG) | 0.201
70 | GAGGGCCCTTGGGTTCTAACCTGTTGCCG (site GAGGGCCCTCA) | 0.29
71 | GAGGGCCCTTGGGTTCTAACCTGTTGCCG (site GAGGGCCCTCC) | 1.2
72 | GAGGGCCCTTGGGTTCTAACCTGTTGCCG (site GAGGGCCCTCG) | 1.96
73 | GAGGGCCCTTGGGTTCTAACCTGTTGCCG (site GAGGGCCCTCT) | 0.759
74 | GAGGGCCCTTGGGTTCTAACCTGTTGCGG (site GAGGGCCCTCA) | 1.94
75 | GAGGGCCCTTGGGTTCTAACCTGTTGCGG (site GAGGGCCCTCC) | 3.11
76 | GAGGGCCCTTGGGTTCTAACCTGTTGCGG (site GAGGGCCCTCG) | 0.81
77 | GAGGGCCCTTGGGTTCTAACCTGTTGCGG (site GAGGGCCCTCT) | 2.8
78 | GAGGGTACTTGGGTTCTAACCTGTTGCAT (site GAGAGTACTAT) | 1.16
79 | GAGGGTACTTGGGTTCTAACCTGTTGCAT (site GAGCGTACTAT) | 0.206
80 | GAGGGTACTTGGGTTCTAACCTGTTGCAT (site GAGGGTACTAT) | 2.69
81 | GAGGGTACTTGGGTTCTAACCTGTTGCAT (site GAGTGTACTAT) | 0.102
82 | GAGGGTCCTTGGGTTCTAACCTGTTGCGT (site GAGGGTCCTAA) | 0.194
83 | GAGGGTCCTTGGGTTCTAACCTGTTGCGT (site GAGGGTCCTAC) | 2.82
84 | GAGGGTCCTTGGGTTCTAACCTGTTGCGT (site GAGGGTCCTAG) | 1.86
85 | GAGGGTCCTTGGGTTCTAACCTGTTGCGT (site GAGGGTCCTAT) | 2.29
86 | GAGTACCCTTGGGTTCTAACCTGTTGCGT (site GAGAATCCTAC) | 0.107
